Experimental data: patent US10112954B2, “Bicyclic heteroaryl derivatives having inhibitory activity for protein kinase” (HANMI PHARM. CO., LTD., priority 2010, dated 2018)
Read-outs that look alike come from different tables or passages of the source.

How the values were obtained:
Format in all cases: biochemical
[1] = molecular target: T1, FGFR1 (Homo sapiens, UniProt P11362); assay: Inhibition of FGFR1 kinase (fluorescence polarization kinase assay)
T1 construct: purchased Upstate Company
Protocol: (§1) Inhibition activities of kinases of the inventive compounds (test compounds) prepared in the Examples were assessed and represented as IC50 values.
(§2) Kinases used in Test Examples 1 to 3 were purchased from Upstate Company.
(§3) 100 mM HEPES (pH 7.4), 25 mM MgCl2, 10 mM MnCl2 and 250 μM Na3VO4 were mixed to prepare a kinase buffer. Each of kinases to be measured was diluted to a concentration of 25˜300 ng per one reaction according to its activity with the kinase buffer. Also, each of the test compounds was serially diluted to a concentration starting from 100 nM up to 0.1 nM with the kinase buffer. 10 μl of the serially diluted solution of each of the test compounds and 10 μl of the diluted kinase were added to each well of a 96-well microplate, and the plate was incubated at room temperature for 10 mins. 10 μl of a substrate and 10 μl of ATP were successively added thereto to initiate a kinase reaction, and the resulting mixture was incubated at room temperature for 1 hour. The ATP was used in a form of a solution diluted to a concentration determined according to a kinase's Km value with distilled water. 10˜100 ng/mL poly(Glu, Tyr) 4:1 (Sigma) was used as the substrate. 10 μl of 6 mM EDTA was added to each well and stirred for 5 mins to terminate the kinase reaction. For a measurement of phosphorylation degree, 50 μl of a solution containing anti-phosphotyrosine antibody and fluorescein-labeled phosphopeptide was added to the reaction mixture, followed by incubating for 30 mins. The FP (fluorescence polarization) value of each well was determined with a Victor™ D fluorescence meter (Perkin Elmer Lifesciences).
(§4) IC50, the concentration at which 50% inhibition occurs, was evaluated based on the difference between the final concentration of the test cells and the initial concentration of the cells incubated in a well not-treated with the test compound which was regarded as 100%. IC50 values of the test compounds on the FGFR kinase were shown in Table 2, and those of the test compound obtained in Example 177 on various kinases, in Table 3.

[2] = molecular target: T2, FGFR3 (Homo sapiens, UniProt P22607); assay: Inhibition of FGFR3 kinase (fluorescence polarization kinase assay)
T2 construct: purchased Upstate Company
Protocol: as §1, §2, §3, §4

[3] = molecular target: T3, EGFR (Homo sapiens, UniProt P00533); assay: Inhibition of EGFR (Her1) kinase; conditions: Table 3
T3 construct: purchased Upstate Company
Protocol: as §1, §2
as §3, with “10 μl of 6 mM EDTA was added to each well and stirred for 5 mins to terminate the kinase reaction. For a measurement of phosphorylation degree, 50 μl of a solution containing anti-phosphotyrosine antibody and fluorescein-labeled phosphopeptide was added to the reaction mixture, followed by incubating for 30 mins.” left out, “Lifesciences). […]” for “Lifesciences).”

[4] = molecular target: T4, Her2 (Homo sapiens, UniProt P04626); assay: Inhibition of Her2 kinase; conditions: Table 3
T4 construct: purchased Upstate Company
Protocol: as §1, §2
as §3, with “10 μl of 6 mM EDTA was added to each well and stirred for 5 mins to terminate the kinase reaction. For a measurement of phosphorylation degree, 50 μl of a solution containing anti-phosphotyrosine antibody and fluorescein-labeled phosphopeptide was added to the reaction mixture, followed by incubating for 30 mins.” left out, “Lifesciences). […]” for “Lifesciences).”

[5] = molecular target: T5, Flt1 (Homo sapiens, UniProt P17948); assay: Inhibition of Flt1 kinase; conditions: Table 3
T5 construct: purchased Upstate Company
Protocol: as §1, §2
as §3, with “10 μl of 6 mM EDTA was added to each well and stirred for 5 mins to terminate the kinase reaction. For a measurement of phosphorylation degree, 50 μl of a solution containing anti-phosphotyrosine antibody and fluorescein-labeled phosphopeptide was added to the reaction mixture, followed by incubating for 30 mins.” left out, “Lifesciences). […]” for “Lifesciences).”

[6] = molecular target: T6, KDR (Homo sapiens, UniProt P35968); assay: Inhibition of KDR kinase; conditions: Table 3
T6 construct: purchased Upstate Company
Protocol: as §1, §2
as §3, with “10 μl of 6 mM EDTA was added to each well and stirred for 5 mins to terminate the kinase reaction. For a measurement of phosphorylation degree, 50 μl of a solution containing anti-phosphotyrosine antibody and fluorescein-labeled phosphopeptide was added to the reaction mixture, followed by incubating for 30 mins.” left out, “Lifesciences). […]” for “Lifesciences).”

[7] = molecular target: T7, Flt3 (Homo sapiens, UniProt P36888); assay: Inhibition of Flt3 kinase; conditions: Table 3
T7 construct: purchased Upstate Company
T7 sequence (P36888 27-993): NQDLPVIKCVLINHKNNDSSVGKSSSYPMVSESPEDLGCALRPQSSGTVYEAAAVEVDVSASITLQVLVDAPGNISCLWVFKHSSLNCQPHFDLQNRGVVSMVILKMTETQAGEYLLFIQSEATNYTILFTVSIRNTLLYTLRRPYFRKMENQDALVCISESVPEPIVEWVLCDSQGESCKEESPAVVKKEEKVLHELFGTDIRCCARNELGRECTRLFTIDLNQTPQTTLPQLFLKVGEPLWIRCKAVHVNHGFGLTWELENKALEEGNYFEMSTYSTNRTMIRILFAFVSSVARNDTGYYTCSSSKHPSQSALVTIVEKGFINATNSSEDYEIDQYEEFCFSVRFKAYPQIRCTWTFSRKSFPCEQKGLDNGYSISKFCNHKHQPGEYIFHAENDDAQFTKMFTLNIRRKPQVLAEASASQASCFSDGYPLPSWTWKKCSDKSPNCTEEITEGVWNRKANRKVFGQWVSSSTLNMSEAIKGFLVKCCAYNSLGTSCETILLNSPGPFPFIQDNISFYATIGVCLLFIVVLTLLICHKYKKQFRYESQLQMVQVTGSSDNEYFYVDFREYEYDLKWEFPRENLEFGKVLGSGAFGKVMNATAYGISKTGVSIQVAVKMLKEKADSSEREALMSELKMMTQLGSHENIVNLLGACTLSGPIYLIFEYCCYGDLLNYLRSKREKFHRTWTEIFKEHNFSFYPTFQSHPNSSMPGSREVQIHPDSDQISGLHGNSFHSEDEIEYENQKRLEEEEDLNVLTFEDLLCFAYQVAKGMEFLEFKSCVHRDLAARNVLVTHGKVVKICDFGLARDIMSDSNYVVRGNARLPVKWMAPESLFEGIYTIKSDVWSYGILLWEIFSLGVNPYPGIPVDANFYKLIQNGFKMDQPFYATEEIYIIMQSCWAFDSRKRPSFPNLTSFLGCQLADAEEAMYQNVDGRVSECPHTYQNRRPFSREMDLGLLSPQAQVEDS
Protocol: as §1, §2
as §3, with “10 μl of 6 mM EDTA was added to each well and stirred for 5 mins to terminate the kinase reaction. For a measurement of phosphorylation degree, 50 μl of a solution containing anti-phosphotyrosine antibody and fluorescein-labeled phosphopeptide was added to the reaction mixture, followed by incubating for 30 mins.” left out, “Lifesciences). […]” for “Lifesciences).”

[8] = molecular target: T8, PDGFRα (Homo sapiens, UniProt P16234); assay: Inhibition of PDGFRα kinase; conditions: Table 3
T8 construct: purchased Upstate Company
Protocol: as §1, §2
as §3, with “10 μl of 6 mM EDTA was added to each well and stirred for 5 mins to terminate the kinase reaction. For a measurement of phosphorylation degree, 50 μl of a solution containing anti-phosphotyrosine antibody and fluorescein-labeled phosphopeptide was added to the reaction mixture, followed by incubating for 30 mins.” left out, “Lifesciences). […]” for “Lifesciences).”

[9] = molecular target: T9, PDGFRβ (Homo sapiens, UniProt P09619); assay: Inhibition of PDGFRβ kinase; conditions: Table 3
T9 construct: purchased Upstate Company
Protocol: as §1, §2
as §3, with “10 μl of 6 mM EDTA was added to each well and stirred for 5 mins to terminate the kinase reaction. For a measurement of phosphorylation degree, 50 μl of a solution containing anti-phosphotyrosine antibody and fluorescein-labeled phosphopeptide was added to the reaction mixture, followed by incubating for 30 mins.” left out, “Lifesciences). […]” for “Lifesciences).”

[10] = molecular target: T10, Fms (Homo sapiens, UniProt P07333); assay: Inhibition of Fms kinase; conditions: Table 3
T10 construct: purchased Upstate Company
Protocol: as §1, §2
as §3, with “10 μl of 6 mM EDTA was added to each well and stirred for 5 mins to terminate the kinase reaction. For a measurement of phosphorylation degree, 50 μl of a solution containing anti-phosphotyrosine antibody and fluorescein-labeled phosphopeptide was added to the reaction mixture, followed by incubating for 30 mins.” left out, “Lifesciences). […]” for “Lifesciences).”

[11] = molecular target: T11, Kit (Homo sapiens, UniProt P10721); assay: Inhibition of Kit kinase; conditions: Table 3
T11 construct: purchased Upstate Company
Protocol: as §1, §2
as §3, with “10 μl of 6 mM EDTA was added to each well and stirred for 5 mins to terminate the kinase reaction. For a measurement of phosphorylation degree, 50 μl of a solution containing anti-phosphotyrosine antibody and fluorescein-labeled phosphopeptide was added to the reaction mixture, followed by incubating for 30 mins.” left out, “Lifesciences). […]” for “Lifesciences).”

[12] = molecular target: T12, Ret (Homo sapiens, UniProt P07949); assay: Inhibition of Ret kinase; conditions: Table 3
T12 construct: purchased Upstate Company
Protocol: as §1, §2
as §3, with “10 μl of 6 mM EDTA was added to each well and stirred for 5 mins to terminate the kinase reaction. For a measurement of phosphorylation degree, 50 μl of a solution containing anti-phosphotyrosine antibody and fluorescein-labeled phosphopeptide was added to the reaction mixture, followed by incubating for 30 mins.” left out, “Lifesciences). […]” for “Lifesciences).”

[13] = molecular target: T13, Tie2 (Homo sapiens, UniProt Q02763); assay: Inhibition of Tie2 kinase; conditions: Table 3
T13 construct: purchased Upstate Company
Protocol: as §1, §2
as §3, with “10 μl of 6 mM EDTA was added to each well and stirred for 5 mins to terminate the kinase reaction. For a measurement of phosphorylation degree, 50 μl of a solution containing anti-phosphotyrosine antibody and fluorescein-labeled phosphopeptide was added to the reaction mixture, followed by incubating for 30 mins.” left out, “Lifesciences). […]” for “Lifesciences).”

[14] = molecular target: T14, Met (Homo sapiens, UniProt P08581); assay: Inhibition of Met kinase; conditions: Table 3
T14 construct: purchased Upstate Company
Protocol: as §1, §2
as §3, with “10 μl of 6 mM EDTA was added to each well and stirred for 5 mins to terminate the kinase reaction. For a measurement of phosphorylation degree, 50 μl of a solution containing anti-phosphotyrosine antibody and fluorescein-labeled phosphopeptide was added to the reaction mixture, followed by incubating for 30 mins.” left out, “Lifesciences). […]” for “Lifesciences).”

[15] = molecular target: T15, Src (Homo sapiens, UniProt P12931); assay: Inhibition of Src kinase (Profluor Src kinase assay kit); conditions: Table 3
T15 construct: purchased Upstate Company
Protocol: as §1, §2
(§5) An inhibition activity of Src kinase was determined with an Src kinase assay kit (Profluor™, Promega). Each of kinases to be measured was diluted to a concentration of 25 ng per one reaction with the kinase buffer provided in the kit. Also, each of the test compounds was serially diluted to a concentration starting from 100 μM up to 0.1 nM with 10% DMSO. 5 μl of the serially diluted solution of each of the test compounds and 20 μl of the diluted kinase were added to each well of a 96-well microplate, and the plate was incubated at room temperature for 10 mins. 25 μl of ATP was added thereto, followed by incubating for 1 hour, and a protease solution was added thereto, followed by incubating for 1 hour. 25 μl of a stabilizer solution was added to the resulting solution, followed by incubating in dark for 5 mins. The absorbance of each well was determined with a fluorescence reader (Molecular Devices) (excitation wavelength: 485 nm, emission wavelength: 530 nm). […]

[16] = molecular target: T16, Lck (Homo sapiens, UniProt P06239); assay: Inhibition of Lck kinase (Profluor kit procedure); conditions: Table 3
T16 construct: purchased Upstate Company
Protocol: as §1, §2, §5

[17] = molecular target: T17, Fyn (Homo sapiens, UniProt P06241); assay: Inhibition of Fyn kinase (Profluor kit procedure); conditions: Table 3
T17 construct: purchased Upstate Company
Protocol: as §1, §2, §5

[18] = molecular target: T18, Lyn (Homo sapiens, UniProt P07948); assay: Inhibition of Lyn kinase (Profluor kit procedure); conditions: Table 3
T18 construct: purchased Upstate Company
Protocol: as §1, §2, §5

[19] = Table 2, class symbols, read-out: FGFR1 IC50
[20] = Table 2, class symbols, read-out: FGFR3 IC50

T1 sequence (P11362 22-822, species assumed): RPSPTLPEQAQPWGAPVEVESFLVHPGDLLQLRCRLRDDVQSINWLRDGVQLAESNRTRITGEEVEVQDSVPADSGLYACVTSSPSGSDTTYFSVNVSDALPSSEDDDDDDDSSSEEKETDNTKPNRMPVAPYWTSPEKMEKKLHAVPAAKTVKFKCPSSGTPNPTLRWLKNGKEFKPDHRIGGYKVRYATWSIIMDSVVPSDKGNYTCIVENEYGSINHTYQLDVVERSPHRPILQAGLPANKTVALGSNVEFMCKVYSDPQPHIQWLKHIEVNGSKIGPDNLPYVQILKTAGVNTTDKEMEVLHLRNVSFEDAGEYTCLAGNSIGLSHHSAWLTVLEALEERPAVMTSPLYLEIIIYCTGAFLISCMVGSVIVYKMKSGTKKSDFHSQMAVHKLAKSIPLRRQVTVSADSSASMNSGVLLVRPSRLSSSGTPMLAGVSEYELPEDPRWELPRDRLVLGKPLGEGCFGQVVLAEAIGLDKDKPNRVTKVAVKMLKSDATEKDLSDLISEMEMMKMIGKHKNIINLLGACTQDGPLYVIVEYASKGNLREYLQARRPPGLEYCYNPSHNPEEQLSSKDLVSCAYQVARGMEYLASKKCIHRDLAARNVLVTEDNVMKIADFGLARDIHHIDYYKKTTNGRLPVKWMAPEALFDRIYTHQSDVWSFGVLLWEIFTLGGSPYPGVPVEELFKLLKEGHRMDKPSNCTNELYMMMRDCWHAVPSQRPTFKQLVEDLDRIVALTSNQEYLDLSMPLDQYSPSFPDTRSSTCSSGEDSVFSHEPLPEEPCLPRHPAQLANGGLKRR
T2 sequence (P22607 23-806, species assumed): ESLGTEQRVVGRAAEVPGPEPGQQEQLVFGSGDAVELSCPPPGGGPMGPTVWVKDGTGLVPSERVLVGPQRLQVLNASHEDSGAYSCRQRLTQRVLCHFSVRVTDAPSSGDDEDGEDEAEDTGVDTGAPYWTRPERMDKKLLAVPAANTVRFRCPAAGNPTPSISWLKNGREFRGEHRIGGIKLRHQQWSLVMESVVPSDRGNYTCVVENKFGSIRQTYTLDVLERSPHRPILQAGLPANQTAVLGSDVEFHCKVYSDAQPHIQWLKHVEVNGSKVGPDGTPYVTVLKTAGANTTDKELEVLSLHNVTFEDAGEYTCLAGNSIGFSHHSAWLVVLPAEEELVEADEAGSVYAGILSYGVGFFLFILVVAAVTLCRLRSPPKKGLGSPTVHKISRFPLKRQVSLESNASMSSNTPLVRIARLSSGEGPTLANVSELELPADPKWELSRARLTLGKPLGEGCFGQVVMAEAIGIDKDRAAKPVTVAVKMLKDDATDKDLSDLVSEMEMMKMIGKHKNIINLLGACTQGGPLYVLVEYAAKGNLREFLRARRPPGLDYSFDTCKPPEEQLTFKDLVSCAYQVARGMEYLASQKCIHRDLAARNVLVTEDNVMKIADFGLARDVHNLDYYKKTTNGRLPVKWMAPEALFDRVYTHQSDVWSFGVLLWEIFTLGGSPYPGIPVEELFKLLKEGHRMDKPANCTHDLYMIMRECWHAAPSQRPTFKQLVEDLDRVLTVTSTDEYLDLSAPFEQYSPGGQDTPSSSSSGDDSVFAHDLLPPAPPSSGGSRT
T9 sequence (P09619 33-1106, species assumed): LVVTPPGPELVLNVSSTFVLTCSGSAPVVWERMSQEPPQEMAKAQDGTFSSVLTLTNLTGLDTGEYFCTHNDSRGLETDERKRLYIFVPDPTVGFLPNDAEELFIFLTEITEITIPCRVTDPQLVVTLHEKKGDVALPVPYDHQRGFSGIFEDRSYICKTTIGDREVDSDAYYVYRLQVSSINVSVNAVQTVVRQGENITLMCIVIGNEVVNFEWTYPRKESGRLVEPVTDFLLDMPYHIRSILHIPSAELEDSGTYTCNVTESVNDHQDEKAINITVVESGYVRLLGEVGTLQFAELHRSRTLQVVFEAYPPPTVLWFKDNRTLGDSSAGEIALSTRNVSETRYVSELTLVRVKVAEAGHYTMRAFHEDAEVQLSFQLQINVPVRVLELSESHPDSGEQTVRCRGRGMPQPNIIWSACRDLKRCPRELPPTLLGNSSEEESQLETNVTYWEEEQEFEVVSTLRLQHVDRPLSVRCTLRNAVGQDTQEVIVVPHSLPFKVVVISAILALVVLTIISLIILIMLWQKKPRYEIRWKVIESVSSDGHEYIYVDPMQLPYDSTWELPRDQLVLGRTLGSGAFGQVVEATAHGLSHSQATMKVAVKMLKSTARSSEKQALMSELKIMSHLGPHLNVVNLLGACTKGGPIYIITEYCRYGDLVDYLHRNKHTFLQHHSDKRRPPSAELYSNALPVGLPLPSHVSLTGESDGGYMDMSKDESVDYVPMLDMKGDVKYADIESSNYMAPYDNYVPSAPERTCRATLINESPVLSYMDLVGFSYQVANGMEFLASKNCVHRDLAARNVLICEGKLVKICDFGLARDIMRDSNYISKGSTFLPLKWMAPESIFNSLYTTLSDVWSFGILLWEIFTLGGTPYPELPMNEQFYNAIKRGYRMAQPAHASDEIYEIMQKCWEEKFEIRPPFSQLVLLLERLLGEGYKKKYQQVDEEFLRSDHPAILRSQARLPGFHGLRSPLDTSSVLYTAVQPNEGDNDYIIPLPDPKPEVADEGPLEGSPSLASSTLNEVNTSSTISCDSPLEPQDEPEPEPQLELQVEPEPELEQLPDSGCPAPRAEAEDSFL
T11 sequence (P10721 26-976, species assumed): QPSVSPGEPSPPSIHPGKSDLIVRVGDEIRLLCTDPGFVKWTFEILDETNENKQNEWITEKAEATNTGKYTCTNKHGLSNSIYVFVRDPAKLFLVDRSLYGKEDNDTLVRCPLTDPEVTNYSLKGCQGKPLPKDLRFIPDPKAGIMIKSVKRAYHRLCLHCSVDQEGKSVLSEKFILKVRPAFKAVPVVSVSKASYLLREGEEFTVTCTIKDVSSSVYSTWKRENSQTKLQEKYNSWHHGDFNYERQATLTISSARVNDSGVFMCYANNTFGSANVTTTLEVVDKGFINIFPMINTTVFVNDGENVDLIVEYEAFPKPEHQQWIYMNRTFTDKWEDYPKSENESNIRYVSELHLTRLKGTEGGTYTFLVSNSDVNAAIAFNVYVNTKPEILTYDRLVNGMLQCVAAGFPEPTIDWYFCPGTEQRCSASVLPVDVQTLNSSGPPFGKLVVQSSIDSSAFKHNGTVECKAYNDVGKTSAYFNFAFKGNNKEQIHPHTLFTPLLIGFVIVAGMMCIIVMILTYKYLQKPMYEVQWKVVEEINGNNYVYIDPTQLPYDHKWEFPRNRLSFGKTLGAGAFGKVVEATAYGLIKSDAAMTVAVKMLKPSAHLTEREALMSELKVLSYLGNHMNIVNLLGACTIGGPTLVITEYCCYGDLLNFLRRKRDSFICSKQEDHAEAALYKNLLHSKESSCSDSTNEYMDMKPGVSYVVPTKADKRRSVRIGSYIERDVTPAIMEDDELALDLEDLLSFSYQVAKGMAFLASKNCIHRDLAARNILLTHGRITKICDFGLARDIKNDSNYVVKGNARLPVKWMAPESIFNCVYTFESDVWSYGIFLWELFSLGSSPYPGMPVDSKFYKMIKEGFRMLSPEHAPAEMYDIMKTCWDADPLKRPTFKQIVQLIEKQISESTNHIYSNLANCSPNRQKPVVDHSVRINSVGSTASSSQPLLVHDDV
T12 sequence (P07949 29-1114, species assumed): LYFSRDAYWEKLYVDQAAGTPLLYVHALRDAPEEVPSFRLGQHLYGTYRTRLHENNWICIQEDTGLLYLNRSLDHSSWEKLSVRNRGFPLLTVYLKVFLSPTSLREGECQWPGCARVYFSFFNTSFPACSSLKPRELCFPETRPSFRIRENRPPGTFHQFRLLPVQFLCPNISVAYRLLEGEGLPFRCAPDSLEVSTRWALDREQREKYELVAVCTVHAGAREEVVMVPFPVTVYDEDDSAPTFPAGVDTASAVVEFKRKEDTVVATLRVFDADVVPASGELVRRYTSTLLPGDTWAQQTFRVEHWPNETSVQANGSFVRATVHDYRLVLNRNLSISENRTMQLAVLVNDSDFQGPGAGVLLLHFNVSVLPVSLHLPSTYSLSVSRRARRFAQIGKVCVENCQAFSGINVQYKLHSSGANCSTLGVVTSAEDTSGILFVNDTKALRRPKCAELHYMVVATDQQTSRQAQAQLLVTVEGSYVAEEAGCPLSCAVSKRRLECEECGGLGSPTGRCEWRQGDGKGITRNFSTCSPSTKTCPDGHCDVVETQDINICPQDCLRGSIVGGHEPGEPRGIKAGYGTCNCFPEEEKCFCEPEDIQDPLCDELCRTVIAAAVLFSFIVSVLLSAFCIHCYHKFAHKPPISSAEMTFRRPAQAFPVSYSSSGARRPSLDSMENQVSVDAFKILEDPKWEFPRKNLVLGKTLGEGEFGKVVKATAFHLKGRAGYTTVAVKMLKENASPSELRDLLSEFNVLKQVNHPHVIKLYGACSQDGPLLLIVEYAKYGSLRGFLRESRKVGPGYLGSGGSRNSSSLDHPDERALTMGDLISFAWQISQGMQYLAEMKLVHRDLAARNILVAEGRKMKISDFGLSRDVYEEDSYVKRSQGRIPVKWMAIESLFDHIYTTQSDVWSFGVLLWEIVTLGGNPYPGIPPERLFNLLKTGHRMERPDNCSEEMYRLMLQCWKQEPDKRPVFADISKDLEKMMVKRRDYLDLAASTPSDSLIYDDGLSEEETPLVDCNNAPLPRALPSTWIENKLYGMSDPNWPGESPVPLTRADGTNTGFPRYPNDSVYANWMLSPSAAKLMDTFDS

| Structure (SMILES) | IC50 [1, 19] [nM] | IC50 [2, 20] [nM] | IC50 ([1]; Table 3, read-out: IC50 (nM) FGFR1) [nM] | IC50 ([2]; Table 3, read-out: IC50 (nM) FGFR3) [nM] | IC50 [3] [nM] | IC50 [4] [nM] | IC50 [5] [nM] | IC50 [6] [nM] | IC50 [7] [nM] | IC50 [8] [nM] | IC50 [9] [nM] | IC50 [10] [nM] | IC50 [11] [nM] | IC50 [12] [nM] | IC50 [13] [nM] | IC50 [14] [nM] | IC50 [15] [nM] | IC50 [16] [nM] | IC50 [17] [nM] | IC50 [18] [nM] |
| --- | --- | --- | --- | --- | --- | --- | --- | --- | --- | --- | --- | --- | --- | --- | --- | --- | --- | --- | --- | --- |
| COc1cc(OC)c(Cl)c(NC(=O)c2csc3c(NCCNc4ccccc4)ncnc23)c1Cl [Example 304, N-(2,6-dichloro-3,5-dimethoxyphenyl)-4-(2-(phenylamino)ethyl-amino)thieno[3,2-d]pyrimidine-7-carboxamide] | 1000 to 5000 | 1000 to 5000 | – | – | – | – | – | – | – | – | – | – | – | – | – | – | – | – | – | – |
| COc1cc(OC)c(Cl)c(NC(=O)c2csc3c(Nc4ccc(NC(=O)CN(C)C)cn4)ncnc23)c1Cl [Example 299, N-(2,6-dichloro-3,5-dimethoxyphenyl)-4-(5-(2-(dimethylamino)acetamido)pyridin-2-ylamino)thieno[3,2-d]pyrimidine-7-carboxamide] | 1 to 100 | 1 to 100 | – | – | – | – | – | – | – | – | – | – | – | – | – | – | – | – | – | – |
| COc1cc(OC)c(Cl)c(NC(=O)c2csc3c(NC(=O)C4CC4)ncnc23)c1Cl [Example 177, 4-(cyclopropanecarbox-amido)-N-(2,6-dichloro-3,5-dimethoxyphenyl) thieno[3,2-d]pyrimidine-7-carboxamide] | – | – | < 100 | < 100 | > 1000 | > 1000 | > 1000 | < 200 | > 1000 | > 1000 | > 1000 | < 200 | > 1000 | > 1000 | > 1000 | > 1000 | > 1000 | > 1000 | > 1000 | > 1000 |
